Biological target: Cell division control protein 42 homolog (Homo sapiens) (UniProt P60953)
Assay: inhibition of fluorescent GTP binding to Cdc42 – biochemical, multiplex bead flow cytometry, round 1, SAR follow-up (AID 588377)
Conditions: GST-Cdc42 wt beads

Cell division control protein 42 homolog (Homo sapiens), sequence (P60953 whole entry, looked up): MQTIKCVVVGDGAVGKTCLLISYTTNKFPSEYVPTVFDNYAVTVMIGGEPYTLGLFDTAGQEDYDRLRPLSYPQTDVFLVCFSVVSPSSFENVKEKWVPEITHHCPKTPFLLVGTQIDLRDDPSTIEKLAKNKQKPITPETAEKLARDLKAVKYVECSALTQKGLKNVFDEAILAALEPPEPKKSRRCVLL

SMILES	EC50
NS(=O)(=O)c1ccc(N2N=C(c3ccccc3)CC2c2ccccc2)cc1 (stereo not drawn)	4.13 µM
O=C(C#Cc1ccccc1)c1cccc([N+](=O)[O-])c1	3.94 µM
COc1ccc(C2CC(c3ccccc3)=NN2c2ccc(S(N)(=O)=O)cc2)cc1 (stereo not drawn)	0.823 µM

From PubChem BioAssay AID588377 (NMMLSC, 2011)
